# Patent US9951040B2, “1,3,5 -triazine based PI3K inhibitors as anticancer agents and a process for the preparation thereof” (Council of Scientific and Industrial Research, priority 2014, dated 2018)
# Like-named read-outs stand apart in the source and are kept apart here.
# Biological target: PI3K alpha (Homo sapiens, UniProt P42336)
# Assay: PI3K-α assay (ADP-Glo enzyme inhibition)
# Format: biochemical
# Settings: at 500 nm
# Procedure: Compounds were evaluated for their ability to inhibit class I PI3-kinase enzyme alpha as given below. PI3K-α Assay: PI3K alpha (diluted in 12.5 mM Glycine-NaOH (pH 8.5), 50 mM KCl, 2.5 mM MgCl2, 1 mM DTT, 0.05% CHAPS) is assayed in total volume of 20 ul containing 12.5 mM glycine-NaOH (pH 8.5), 50 mM KCl, 2.5 mM MgCl2, 1 mM DTT, 0.05% CHAPS, 0.01 mM ATP and 0.05 mM diC8 PIP2. The enzyme is assayed for 80 min after which 20 ul of ADP-Glo reagent is added. After a further incubation of 40 min, 40 ul of Kinase Detection Buffer is added. The assays are incubated for 40 min and then read on PerkinElmer Envision for 1 sec/well.
# [1] = read-out: In vitro PI3K α % of inhibition
# [2] = read-out: inhibition against PI3K alpha
# PI3K alpha, sequence (P42336 whole entry, species assumed): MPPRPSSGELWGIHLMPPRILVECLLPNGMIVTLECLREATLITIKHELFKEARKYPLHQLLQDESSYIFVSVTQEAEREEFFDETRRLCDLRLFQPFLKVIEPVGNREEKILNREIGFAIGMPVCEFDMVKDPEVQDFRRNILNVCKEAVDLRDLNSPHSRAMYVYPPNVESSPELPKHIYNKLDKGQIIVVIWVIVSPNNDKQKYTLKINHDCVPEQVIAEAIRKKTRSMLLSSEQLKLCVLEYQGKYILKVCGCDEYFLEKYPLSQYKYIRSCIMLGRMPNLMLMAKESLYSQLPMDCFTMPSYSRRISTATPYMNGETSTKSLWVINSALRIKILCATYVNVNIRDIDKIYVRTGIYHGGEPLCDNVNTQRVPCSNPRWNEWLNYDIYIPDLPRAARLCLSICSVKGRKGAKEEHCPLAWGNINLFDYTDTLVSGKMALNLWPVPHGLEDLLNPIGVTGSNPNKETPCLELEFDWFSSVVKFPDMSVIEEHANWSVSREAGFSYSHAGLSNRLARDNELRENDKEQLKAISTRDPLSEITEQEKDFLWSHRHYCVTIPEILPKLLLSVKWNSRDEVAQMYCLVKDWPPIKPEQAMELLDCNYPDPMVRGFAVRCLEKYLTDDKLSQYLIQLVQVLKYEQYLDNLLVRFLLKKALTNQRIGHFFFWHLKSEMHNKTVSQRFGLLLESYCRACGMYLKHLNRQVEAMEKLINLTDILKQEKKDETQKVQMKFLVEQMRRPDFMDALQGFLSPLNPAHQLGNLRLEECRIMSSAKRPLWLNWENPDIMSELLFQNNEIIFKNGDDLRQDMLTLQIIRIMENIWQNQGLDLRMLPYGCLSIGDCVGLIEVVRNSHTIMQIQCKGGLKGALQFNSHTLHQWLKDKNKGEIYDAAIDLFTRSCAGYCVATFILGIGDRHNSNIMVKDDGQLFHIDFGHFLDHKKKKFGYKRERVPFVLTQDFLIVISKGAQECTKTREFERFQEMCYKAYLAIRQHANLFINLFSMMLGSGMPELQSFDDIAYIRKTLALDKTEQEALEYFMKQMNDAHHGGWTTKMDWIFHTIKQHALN
# PI3K alpha, sequence (P27986 whole entry partner, species assumed): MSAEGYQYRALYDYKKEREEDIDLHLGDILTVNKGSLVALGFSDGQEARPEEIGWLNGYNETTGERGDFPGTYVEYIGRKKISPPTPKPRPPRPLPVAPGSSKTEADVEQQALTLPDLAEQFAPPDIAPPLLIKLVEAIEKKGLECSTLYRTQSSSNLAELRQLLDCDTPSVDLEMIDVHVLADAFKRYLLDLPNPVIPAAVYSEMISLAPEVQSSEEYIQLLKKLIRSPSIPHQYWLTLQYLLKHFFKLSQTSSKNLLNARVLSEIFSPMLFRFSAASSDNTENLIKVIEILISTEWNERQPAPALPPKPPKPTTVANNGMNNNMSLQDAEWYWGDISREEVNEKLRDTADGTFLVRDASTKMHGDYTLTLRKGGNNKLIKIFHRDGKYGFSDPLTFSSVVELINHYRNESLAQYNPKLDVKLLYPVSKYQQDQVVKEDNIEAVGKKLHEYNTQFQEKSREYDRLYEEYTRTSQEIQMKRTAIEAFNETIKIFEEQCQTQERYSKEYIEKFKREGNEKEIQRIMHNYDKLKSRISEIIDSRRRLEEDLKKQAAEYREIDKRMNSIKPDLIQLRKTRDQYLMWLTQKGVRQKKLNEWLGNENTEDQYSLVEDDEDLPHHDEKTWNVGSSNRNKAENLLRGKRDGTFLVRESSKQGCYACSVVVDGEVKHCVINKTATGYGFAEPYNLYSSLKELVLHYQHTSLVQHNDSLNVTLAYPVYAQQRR
Structure (SMILES),inhibition at 0.5 µM [1] [%],inhibition at 0.5 µM [2] [%]
"Fc1ccc(N(c2ccc(C(F)(F)F)cc2)C2CCN(c3nc(N4CCOCC4)nc(-n4c(C(F)F)nc5ccccc54)n3)CC2)cc1 [1B43, 1-(4-(2-(difluoromethyl)-1H-benzo[d]imidazol-1-yl)-6-morpholino-1,3,5-triazin-2-yl)-N-(4-fluorophenyl)-N-(4-(trifluoromethyl)phenyl)piperidin-4-amine]",> 70,> 70
"FC(F)(F)c1ccc(OC2CCN(c3nc(N4CCOCC4)nc(-n4cnc5ccccc54)n3)CC2)cc1 [1B15, 4-(4-(1H-benzo[d]imidazol-1-yl)-6-(4-(4-(trifluoromethyl)phenoxy)piperidin-1-yl)-1,3,5-triazin-2-yl)morpholine]",> 70,> 70
"CN(C(=O)C(F)(F)F)c1nc(N2CCOCC2)nc(N2CCC(Oc3ccccc3)CC2)n1 [1A11, 2,2,2-trifluoro-N-methyl-N-(4-morpholino-6-(4-phenoxypiperidin-1-yl)-1,3,5-triazin-2-yl)acetamide]",50 to 70,
"Fc1ccc(N(c2ccc(Cl)cc2)C2CCN(c3nc(N4CCOCC4)nc(-n4c(C(F)F)nc5ccccc54)n3)CC2)cc1 [1B44, N-(4-chlorophenyl)-1-(4-(2-(difluoromethyl)-1H-benzo[d]imidazol-1-yl)-6-morpholino-1,3,5-triazin-2-yl)-N-(4-fluorophenyl)piperidin-4-amine]",50 to 70,
"O=C(N(C(=O)C(F)(F)F)c1nc(N2CCOCC2)nc(N2CCC(Oc3ccccc3)CC2)n1)C(F)(F)F [1A12, 2,2,2-trifluoro-N-(4-morpholino-6-(4-phenoxypiperidin-1-yl)-1,3,5-triazin-2-yl)-N-(2,2,2-trifluoroacetyl)acetamide]",50 to 70,
"Cc1ccc(OC2CCN(c3nc(N(C)C)nc(N4CCOCC4)n3)CC2)cc1 [1A16, N,N-dimethyl-4-morpholino-6-(4-(p-tolyloxy)piperidin-1-yl)-1,3,5-triazin-2-amine]",50 to 70,
"Fc1ccccc1OC1CCN(c2nc(N3CCOCC3)nc(-n3c(C(F)F)nc4ccccc43)n2)CC1 [1B9, 4-(4-(2-(difluoromethyl)-1H-benzo[d]imidazol-1-yl)-6-(4-(2-fluorophenoxy)piperidin-1-yl)-1,3,5-triazin-2-yl)morpholine]",50 to 70,
"O=C(N(C(=O)C(F)(F)F)c1nc(N2CCOCC2)nc(N2CCC(Oc3ccccc3F)CC2)n1)C(F)(F)F [1A14, 2,2,2-trifluoro-N-(4-(4-(2-fluorophenoxy)piperidin-1-yl)-6-morpholino-1,3,5-triazin-2-yl)-N-(2,2,2-trifluoroacetyl)acetamide]",> 70,> 70
"FC(F)(F)c1ccccc1NC1CCN(c2nc(N3CCOCC3)nc(-n3cnc4ccccc43)n2)CC1 [1B40, 1-(4-(1H-benzo[d]imidazol-1-yl)-6-morpholino-1,3,5-triazin-2-yl)-N-(2-(trifluoromethyl)phenyl)piperidin-4-amine]",50 to 70,
"c1ccc(OC2CCN(c3nc(N4CCOCC4)nc(N(c4ccccc4)c4ccccc4)n3)CC2)cc1 [1A18, 4-morpholino-6-(4-phenoxypiperidin-1-yl)-N,N-diphenyl-1,3,5-triazin-2-amine]",50 to 70,
"CN(c1ccc(F)cc1)c1nc(N2CCOCC2)nc(N2CCC(Oc3ccc(F)cc3)CC2)n1 [1A3, 4-(4-(4-fluorophenoxy)piperidin-1-yl)-N-(4-fluorophenyl)-N-methyl-6-morpholino-1,3,5-triazin-2-amine]",> 70,> 70
"FC(F)(F)Oc1ccc(OC2CCN(c3nc(N4CCOCC4)nc(N(c4ccccc4)c4ccccc4)n3)CC2)cc1 [1A20, 4-morpholino-N,N-diphenyl-6-(4-(4-(trifluoromethoxy)phenoxy)piperidin-1-yl)-1,3,5-triazin-2-amine]",50 to 70,
"CN(C)c1nc(N2CCOCC2)nc(N2CCC(Oc3ccc(F)cc3)CC2)n1 [1A17, 4-(4-(4-fluorophenoxy)piperidin-1-yl)-N,N-dimethyl-6-morpholino-1,3,5-triazin-2-amine]",50 to 70,
